Key:
[1] = system: oxaliplatin induced-neuropathic pain model mouse; assay: Analgesic action on oxaliplatin induced-neuropathic pain model mouse; type: in vivo; conditions: C57BL/6N mice, 1 week after oxaliplatin 0.3 mg/kg i.p., mean ± standard error
Description: Oxaliplatin was diluted with saline by the predetermined concentration, and administered intraperitoneally to mice (C57BL/6N, male, 8 weeks old) at 0.3 mg/kg. The test compound was dissolved in 10% captisol or 10% captisol containing 0.1% N-methyl-2-pyrrolidone. The compound was administered intravenously (0.1-10 mg/kg body weight) to the mice immediately before intraperitoneal administration of various anticancer drugs. The pain threshold was measured 1 week after oxaliplatin administration. The pain threshold was evaluated as a weighted value (gram) showing pseudo-escape reaction, when the footpad of the right hind limb was pressed using balance type pressurizing device (Ugo Basile). The values in the table show the mean±standard errors of the weighted values.

TLR4 = biological target: T1, TLR4 (Mus musculus, UniProt Q9QUK6); assay: Inhibitory effect with respect to NO production (LPS/interferon γ-stimulated RAW264.7); type: cell-based, murine; conditions: RAW264.7 cells, LPS 1.25 ng/mL and mouse interferon γ 0.2 ng/mL, nitrite ion in culture supernatant
T1 construct: endogenous in cells; host or cells: RAW264.7 (murine macrophage cell line)
T1 sequence (Q9QUK6 26-835): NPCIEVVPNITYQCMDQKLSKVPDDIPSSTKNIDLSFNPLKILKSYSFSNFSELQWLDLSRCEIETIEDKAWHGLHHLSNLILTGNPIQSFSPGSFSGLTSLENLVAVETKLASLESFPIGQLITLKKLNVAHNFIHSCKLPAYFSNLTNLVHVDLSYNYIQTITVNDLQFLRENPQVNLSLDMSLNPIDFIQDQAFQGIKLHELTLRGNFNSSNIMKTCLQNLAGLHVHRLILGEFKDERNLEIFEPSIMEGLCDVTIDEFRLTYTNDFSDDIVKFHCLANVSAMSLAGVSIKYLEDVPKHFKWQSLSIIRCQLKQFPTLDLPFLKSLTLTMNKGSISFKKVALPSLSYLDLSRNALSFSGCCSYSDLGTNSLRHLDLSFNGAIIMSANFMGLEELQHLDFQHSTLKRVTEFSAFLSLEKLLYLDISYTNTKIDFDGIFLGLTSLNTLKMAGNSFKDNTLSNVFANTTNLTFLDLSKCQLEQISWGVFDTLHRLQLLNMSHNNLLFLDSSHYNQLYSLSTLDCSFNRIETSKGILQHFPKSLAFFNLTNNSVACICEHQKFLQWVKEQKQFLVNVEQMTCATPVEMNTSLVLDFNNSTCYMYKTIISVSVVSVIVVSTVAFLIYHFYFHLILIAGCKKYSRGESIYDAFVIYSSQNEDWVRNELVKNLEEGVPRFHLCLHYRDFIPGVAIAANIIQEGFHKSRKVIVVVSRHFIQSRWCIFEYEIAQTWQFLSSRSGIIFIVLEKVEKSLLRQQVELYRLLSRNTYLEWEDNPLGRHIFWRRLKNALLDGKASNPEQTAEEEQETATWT
T1 sequence (Q9JHF9 19-160 partner): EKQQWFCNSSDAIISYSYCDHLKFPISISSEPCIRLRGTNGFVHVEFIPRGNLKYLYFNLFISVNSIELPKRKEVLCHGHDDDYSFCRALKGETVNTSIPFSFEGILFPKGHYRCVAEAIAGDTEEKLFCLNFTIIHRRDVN
Description: The inhibitory effect on TLR4 was determined using the inhibition rate due to the test compound with respect to NO production as a result of addition of lipopolysaccharide (LPS) using murine macrophage cell line RAW264.7. The cells were adjusted to 2×10^6 cells/mL using RPM1-1640 culture medium (phenol red free) supplemented with 10% inactivated bovine fetal serum, and were plated on 384 well plate so as to contain 6×10^4 cells/30 μL per well. Thereafter the cells were cultured at 37° C. overnight under 5% CO2/95% air. The test compound dissolved in DMSO was diluted 200 times using RPM1-1640 culture medium and adjusted so as to form a compound concentration of 500 nM. The prepared test compound 10 μL (final concentration 100 nM) was added to the cells, and LPS (Sigma) and mouse interferon γ (Wako Pure Chemicals) were added in amounts of 10 μL so as to form final concentrations of 1.25 ng/mL and 0.2 ng/mL respectively. The cells were further cultured overnight, and then the nitrite ion (stable NO metabolite) concentration in the culture supernatant was measured as an index of NO production. The nitrite ion concentration was assayed by adding 10 μL of 20 μg/mL 2,3-diamino naphthalene (DAN) dissolved in 0.2N HCl to 20 μL culture supernatant, incubating at room temperature for ten minutes, and then adding 10 μL of 0.5N NaOH, and measuring the fluorescent value at 460 nm (excitation wavelength 355 nm) using an EnVision plate reader (Perkin Elmer). The NO production inhibition rate (%) was calculated using the value without the addition of stimulating agent as control of 100% inhibition, and the value without the addition of the compound as control of 0% inhibition.

| Structure (SMILES) | Pain threshold (weighted value showing pseudo-escape reaction) ([1]; 0.1 mg/kg i.v.) [gram] | Pain threshold (weighted value showing pseudo-escape reaction) ([1]; 0.3 mg/kg i.v.) [gram] | Pain threshold (weighted value showing pseudo-escape reaction) ([1]; 1 mg/kg i.v.) [gram] | NO production inhibitory effect at 100 nM (% inhibition) (TLR4) |
| --- | --- | --- | --- | --- |
| CCOC(=O)C1=CC2(CC[C@H]1S(=O)(=O)[C@H]1CCc3cc(F)cc(Cl)c31)O[C@H](CO)[C@@H](CO)O2 [Compound 14, Ethyl (2R,3R,8R)-8-(((1S)-7-chloro-5-fluoro-2,3-dihydro-1H-inden-1-yl)sulfonyl)-2,3-bis(hydroxymethyl)-1,4-dioxaspiro[4.5]dec-6-ene-7-carboxylate] | 208.0 ± 33.8 | 215.0 ± 21.6 | 310.0 ± 33.8 | 107 |
| CCOC(=O)C1=CC2(CC[C@H]1S(=O)(=O)[C@H]1CCc3cccc(Cl)c31)O[C@H](COC)[C@@H](COC)O2 [Compound 21, Ethyl (2R,3R,8R)-8-(((1S)-7-chloro-2,3-dihydro-1H-inden-1-yl)sulfonyl)-2,3-bis(methoxymethyl)-1,4-dioxaspiro[4.5]dec-6-ene-7-carboxylate] | 160.0 ± 29.7 | 265.0 ± 58.5 | 285.0 ± 19.3 | 112 |
